From article PMC6832503, “Synthesis of Novel Nicotinic Ligands with Multimodal Action: Targeting Acetylcholine α4β2, Dopamine and Serotonin Transporters” (Molecules, 2019)
Where a name gives a salt, the structure may show the parent alone.

Experiments:
h-DAT = biological target: T1, h-DAT (Homo sapiens, UniProt Q01959); test: [3H]-WIN 35,428 competitive binding on h-DAT membranes (CHO-K1)
T1 construct: purchased Perkin-Elmer RBHDATM400UA; host or cells: CHO-K1 membranes
Experimental: (§1) To evaluate the affinity (Ki) of our compounds, competitive binding assays in α4β2 nAChR using [^3H]-cytisine as radioligand ([^3H]-Cyt) was measured. Binding experiments were carried out on whole rat brain synaptosomes. To evaluate the affinity on the monoamine transporters SERT and DAT, binding affinity (Ki) was determined using [^3H]-WIN 35,428 ([^3H]-WIN) for h-DAT and [^3H]-paroxetine ([^3H]-parox) for h-SERT as specific radioligands for the corresponding monoamine transporters respectively. Competitive binding studies were carried out on homogenized membranes prepared from the human clonal cell line HEK293 for h-SERT (Perkin Elmer) and CHO-K1 for h-DAT (Perkin Elmer). […].
The cellular background CHO-K1 with 400 μL of h-DAT (Code RBHDATM400UA, Perkin-Elmer, Santiago, Chile) was diluted in 12 Eppendorf tubes, with a storage buffer solution of Tris-HCl 50 mM (pH 7.4), EDTA 0.5 mM, MgCl2 10 mM and 10% sucrose, obtaining a final volume of 260–340 μL stored at −80 °C [46]. Each Eppendorf tube was incubated in 50 mM Tris-HCl buffer solution (pH 7.4), 100 mM NaCl, the drugs under study were using increasing concentrations, with 1 nM of [^3H]-WIN 35,428 (specific activity 82.6 Ci/mmol, Code NET1033025UC, Perkin-Elmer, Santiago, Chile) with a final volume of 250 μL. Non-specific binding was determined using 10 mM methylphenidate.
After 120 min at 4 °C, the incubation was stopped by rapid filtration on a Whatman GF/C filter preabsorbed in 0.5% polyethylenimine (PEI), washed with cold working buffer solution, 3 x 3mL, filtered, and scintillation liquid was added. The radioactivity was measured by liquid scintillation spectrometry (MicroBeta 2450 microplate counter, PerkinElmer, Santiago, Chile). The data were plotted by non-linear regression variable inhibitor-response dose (Prism 5.01, GraphPad, San Diego, CA, USA) to estimate the IC50 and Ki values for the tested compounds using the Cheng-Prusoff equation.

α4β2 nAChR = biological target: T2, α4β2 nAChR (Rattus norvegicus, UniProt P09483+P12390); test: [3H]-cytisine competitive binding on whole rat brain synaptosomes
T2 construct: the rat complete brain P1 fraction (occupying 2 mg of wet tissue for each assay); from tissue; host or cells: whole rat brain, synaptosome pellet (fraction P1)
Experimental: as §1
Preparation of the synaptosome fraction: the rats were sacrificed by decapitation, and their brain removed without dissecting. Brain tissue was homogenized in 40 volumes using a buffer of 0.32 M sucrose at pH 7.4, containing 1 mM EDTA, 0.1 mM PMSF, and 0.01% of cold and freshly prepared NaN3, through a glass homogenizer and teflon stem. The homogenate was distributed in Eppendorf tubes and centrifuged at 20,000 g for 30 min at 4 °C to produce a synaptosome pellet (fraction P1) which is used for the binding assay. This fraction P1 was subsequently stored at −80 °C.
Binding assay of [^3H]-cytisine in α4β2 nAChR cells: the rat complete brain P1 fraction (occupying 2 mg of wet tissue for each assay) was incubated in 2500 μL of 20 mM HEPES buffer solution at pH 7.4 containing 118 mm NaCl, 4.8 mm KCl, 2.5 mm CaCl2, 200 mm Tris, 0.1 mm PMSF and 0.01% NaN3 with or without the different drugs under study at different concentrations, in the presence of 1 nM of [^3H]-cytisine (specific activity 35.8 Ci/mmol, Code NET1054025UC, Perkin-Elmer, Santiago, Chile) in a final volume of 250 μL. Non-specific binding was determined using 2.5 mM of cytisine. Incubation was performed for 30 min at room temperature and then for 60 min at 4 °C. Incubation was stopped by rapid filtration in Whatman GF/C filter preabsorbed in 0.5% polyethylenimine, which were washed with cold and fresh working buffer 7 times, then dried, and adding scintillation liquid, left for the whole night in Eppendorf tubes in order to measure later the radioactivity by liquid scintillation spectrometry (MicroBeta 2450 microplate counter, PerkinElmer, Santiago, Chile). The data were plotted by non-linear regression variable inhibitor-response dose (Prism 5.01, GraphPad, San Diego, CA, USA) to obtain the IC50 and Ki values of the tested compounds using the Cheng-Prusoff equation.

h-SERT = biological target: T3, h-SERT (Homo sapiens, UniProt P31645); test: [3H]-paroxetine radioligand binding on h-SERT membranes (HEK293); details: for % radioligand binding at 25 µM / % of Binding [3H]-Paroxetine h-SERT: 25 μM compound, 2 nM [3H]-paroxetine, HEK293 h-SERT membranes; for affinity for h-SERT (displacement of [3H]-paroxetine from the central binding site): result in words
T3 construct: purchased Perkin-Elmer RBHSTM400UA; host or cells: HEK293 membranes
Experimental: as §1
The cellular background HEK293 containing 400 μL of h-SERT (Code RBHSTM400UA, Perkin-Elmer, Santiago, Chile) was diluted in 12 Eppendorf tubes, containing a storage buffer solution of Tris-HCl 50 mM (pH 7.4), EDTA 0.5 mM, MgCl2 10 mM and 10% sucrose, obtaining a final volume between 260 and 340 μL, which was finally stored at −80 °C [46].
Each Eppendorf tube was incubated with 50 mM Tris HCl buffer (pH 7.4), 120 mM NaCl, 5 mM KCl and the drugs under study using increasing concentrations, in presence of 2 nM of [^3H]-paroxetine (specific activity 23.1 Ci/mmol, Code NET86925UC, Perkin-Elmer, Santiago, Chile) with a final volume of 250 μL [46]. Non-specific binding was determined using […] fluoxetine. After 30 min at 27 °C, the incubation was stopped by rapid filtration on a Whatman GF/C filter preabsorbed in 0.5% polyethylenimine (PEI), washed with cold working buffer solution, 3 × 3mL, filtered, and scintillation liquid was added. The radioactivity was measured by liquid scintillation spectrometry (MicroBeta 2450 microplate counter, PerkinElmer, Santiago, Chile). The data were represented in a bar graph using 25 μM concentration for both, the compound under study and fluoxetine as the non-specific ligand. Each bar represents the mean ± S.E.M obtained in the experiments carried out in triplicates.

| Compound | melting point [°C] | Ki (µM) h-DAT (h-DAT) | Ki (α4β2 nAChR) [µM] | Ki (µM) α4β2 nAChR (α4β2 nAChR) | % radioligand binding at 25 µM (h-SERT; […]) [%] | further results |
| --- | --- | --- | --- | --- | --- | --- |
| CN1CCC[C@H]1COC(=O)Cc1ccc(Cl)cc1Cl (as salt: hydrochloride) | 179.1 to 180.5 |  |  |  |  |  |
| CN1CCC[C@H]1COC(=O)Cc1ccc(Cl)c(Cl)c1 (as salt: hydrochloride) | 183.5 to 184.8 |  |  |  |  |  |
| CN1CCC[C@H]1COC(=O)c1cccc(Cl)c1 (as salt: hydrochloride) [Compound 3, (S)-(1-Methyl-2-pyrrolidinyl)methyl 3-chlorobenzoate] | 120.5 to 121.9 |  |  |  |  |  |
| CN1CCC[C@H]1COC(=O)c1cccc(Br)c1 (as salt: hydrochloride) [Compound 4, (S)-(1-Methyl-2-pyrrolidinyl)methyl 3-bromobenzoate] | 99 to 101.4 |  |  |  |  |  |
| Cc1ccccc1C(=O)OC[C@@H]1CCCN1C (as salt: hydrochloride) [Compound 5, (S)-(1-Methyl-2-pyrrolidinyl)methyl 2-methylbenzoate] | 130.5 to 131.6 |  |  |  |  |  |
| CN1CCC[C@H]1COC(=O)c1ccc2ccccc2c1 (as salt: hydrochloride) [Compound 18, (S)-(1-Methyl-2-pyrrolidinyl)methyl 2-naphthoate] | 125.5 to 127.1 |  |  |  |  |  |
| CN1CCCC1CCOC(=O)c1ccccc1 (racemic) (as salt: hydrochloride) [Compound 7, (±)-2-(1-Methyl-2-pyrrolidinyl)ethyl benzoate] | 88.6 to 89.1 |  |  |  |  |  |
| CN1CCCC1CCOC(=O)c1ccccc1 (racemic) [Compound 7, (±)-2-(1-Methyl-2-pyrrolidinyl)ethyl benzoate] |  | no affinity and N.E | 1.79 ± 0.378 |  |  | % radioligand binding at 25 µM (h-SERT; values above 100 = increased radioligand binding): 100 ± 0.5%; affinity for h-SERT (displacement of [3H]-paroxetine from the central binding site) (h-SERT): no affinity |
| CN1CCCC1CCOC(=O)c1cccc(F)c1 (racemic) [Compound 8, (±)-2-(1-Methyl-2-pyrrolidinyl)ethyl 3-fluorobenzoate] |  | N.E |  | N.E | 140 ± 2 | % of Binding [3H]-Paroxetine h-SERT (h-SERT; […]): increase in the binding |
| CN1CCCC1CCOC(=O)c1cccc(Cl)c1 (racemic) [Compound 9, (±)-2-(1-Methyl-2-pyrrolidinyl)ethyl 3-chlorobenzoate] |  | N.E | 3.46 ± 0.36 |  | 108 ± 1.2 |  |
| Cc1ccccc1C(=O)OCCC1CCCN1C (racemic) [Compound 11, (±)-2-(1-Methyl-2-pyrrolidinyl)ethyl 2-methylbenzoate] |  | did not display affinity |  | did not display affinity |  | affinity for h-SERT (displacement of [3H]-paroxetine from the central binding site) (h-SERT): did not display affinity |
| Cc1ccc(C(=O)OCCC2CCCN2C)cc1 (racemic) [Compound 12, (±)-2-(1-Methyl-2-pyrrolidinyl)ethyl 4-methylbenzoate] |  | did not display affinity |  | did not display affinity |  | affinity for h-SERT (displacement of [3H]-paroxetine from the central binding site) (h-SERT): did not display affinity |
| CN1CCCC1CCOC(=O)Cc1ccccc1 (racemic) [Compound 16, (±)-2-(-1-Methyl-2-pyrrolidinyl)ethyl 2-phenylacetate] |  |  |  | N.E | 92 ± 0.3 | Ki (h-DAT): 22.7 ± 7.1 µM |
| CN1CCCC1CCOC(=O)Cc1ccc(Cl)c(Cl)c1 (racemic) [Compound 17, (±)-2-(-1-Methyl-2-pyrrolidinyl)ethyl 2-(3,4-dichlorophenyl)acetate] |  |  |  | N.E | 78 ± 0.6 | Ki (h-DAT): 3.32 ± 0.923 µM |
| CN1CCCC1CCOC(=O)c1ccc2ccccc2c1 (racemic) [Compound 19, (±)-2-(1-Methyl-2-pyrrolidinyl)ethyl 2-naphthoate] |  |  |  | N.E | 126 ± 1.9 | Ki (h-DAT): 44.2 ± 8.12 µM; % of Binding [3H]-Paroxetine h-SERT (h-SERT; […]): increase in the binding |
| CN1CCCC1CCOC(=O)C(c1ccccc1)c1ccccc1 (racemic) [Compound 21, (±)-2-(-1-Methyl-2-pyrrolidinyl)ethyl 2,2-diphenylacetate] |  |  | 0.113 ± 0.037 |  | 86.5 ± 1.5 | Ki (h-DAT): 0.075 ± 0.009 µM |
| CN1CCC[C@H]1COC(=O)c1ccccc1 [Compound 1, (S)-(1-Methyl-2-pyrrolidinyl)methyl Benzoate] |  | N.E | 0.023 ± 0.006 |  | 86 ± 0.6 |  |
| CN1CCC[C@H]1COC(=O)c1cccc(F)c1 [Compound 2, (S)-(1-Methyl-2-pyrrolidinyl)methyl 3-fluorobenzoate] |  | N.E | 0.094 ± 0.002 |  | 123 ± 1.2 | % of Binding [3H]-Paroxetine h-SERT (h-SERT; […]): increase in the binding |
| CN1CCC[C@H]1COC(=O)c1cccc(Cl)c1 [Compound 3, (S)-(1-Methyl-2-pyrrolidinyl)methyl 3-chlorobenzoate] |  | lacks affinity and N.E | 0.009 ± 0.001 |  | 87.5 ± 1.5 | affinity for h-SERT (displacement of [3H]-paroxetine from the central binding site) (h-SERT): lacks affinity |
| CN1CCC[C@H]1COC(=O)c1cccc(Br)c1 [Compound 4, (S)-(1-Methyl-2-pyrrolidinyl)methyl 3-bromobenzoate] |  | N.E | 0.132 ± 0.038 |  | 137 ± 1.2 | % of Binding [3H]-Paroxetine h-SERT (h-SERT; […]): increase in the binding |
| Cc1ccccc1C(=O)OC[C@@H]1CCCN1C [Compound 5, (S)-(1-Methyl-2-pyrrolidinyl)methyl 2-methylbenzoate] |  | did not display affinity |  | did not display affinity |  | affinity for h-SERT (displacement of [3H]-paroxetine from the central binding site) (h-SERT): did not display affinity |
| Cc1ccc(C(=O)OC[C@@H]2CCCN2C)cc1 [Compound 6, (S)-(1-Methyl-2-pyrrolidinyl)methyl 4-methylbenzoate] |  | did not display affinity |  | did not display affinity |  | affinity for h-SERT (displacement of [3H]-paroxetine from the central binding site) (h-SERT): did not display affinity |
| CN1CCC[C@H]1COC(=O)c1ccc2ccccc2c1 [Compound 18, (S)-(1-Methyl-2-pyrrolidinyl)methyl 2-naphthoate] |  |  | 0.12 ± 0.037 |  | 117 ± 2.3 | Ki (h-DAT): 99.3 ± 1.41 µM; % of Binding [3H]-Paroxetine h-SERT (h-SERT; […]): increase in the binding |
